Results published in US20140080886A1, “Methods for Treating HCV” (priority 2012, published 2014).
Where two headings read alike, the source gives them in different places.

How the values were obtained:
Type in all cases: cell-based
[1] = system: HCV replicons containing NS5A genes from genotype 6a HCV infected humans; assay: Transient replicon (shuttle vector) assay with NS5A genes from patient isolates, genotype 6a
[2] = system: HCV genotype 1b-Con1 replicon; assay: HCV stable subgenomic replicon cell culture assay (luciferase reporter), genotype 1b-Con1; details: Hepatitis C virus
[3] = system: HCV replicon containing NS5A from genotype 4a; assay: Stable 1b-Con1 replicon cell line containing a portion of NS5A from genotype 4a (luciferase); details: Hepatitis C virus
Method: (§1) This replicon construct contains a NotI restriction site upstream of NS5A, and a BlpI restriction site just after NS5A amino acid 214. Viral RNA from infected subjects was isolated according to Middleton et al., J VIROL METHODS 145:137-145 (2007) and Tripathi et al., ANTIVIRAL RES 73:40-49 (2007). RT-PCR was conducted on the RNA to generate a DNA fragment encoding NS5A amino acids 1-214. The PCR fragment incorporated NotI and BlpI compatible ends, and this fragment was ligated into a plasmid containing the 1b-Con1 replicon. Stable cell lines were generated by introducing these constructs into Huh-7 cells.
(§2) Briefly, replicon-containing cells were seeded into 96-well plates at a density of 5000 cells per well in 100 μl DMEM containing 5% FBS. The following day, compounds were diluted in dimethyl sulfoxide (DMSO) to generate a 200× stock in a series of eight half-log dilutions. The dilution series was then further diluted 100-fold in the medium containing 5% FBS. […] Luciferin solution (50 μl, Promega) was added to each well, and luciferase activity was measured with a Victor II luminometer (Perkin-Elmer). The percent inhibition of HCV RNA replication was calculated for each compound concentration and the EC50 value was calculated using nonlinear regression curve fitting to the 4-parameter logistic equation and GraphPad Prism 4 software (Halfman, METHODS ENZYMOL 74 Pt C: 481-497 (1981)). […]

[4] = system: HCV replicons containing NS5A genes from genotype 2a HCV infected humans; assay: Transient replicon (shuttle vector) assay with NS5A genes from patient isolates, genotype 2a; details: Hepatitis C virus
[5] = system: HCV replicon containing NS5A from genotype 2a; assay: Stable 1b-Con1 replicon cell line containing a portion of NS5A from genotype 2a (luciferase); details: Hepatitis C virus
Method: as §1, §2

[6] = system: HCV replicons containing NS5A genes from genotype 2b HCV infected humans; assay: Transient replicon (shuttle vector) assay with NS5A genes from patient isolates, genotype 2b
[7] = system: HCV replicon containing NS5A from genotype 3a; assay: Stable 1b-Con1 replicon cell line containing a portion of NS5A from genotype 3a (luciferase); details: Hepatitis C virus
Method: as §1, §2

[8] = system: HCV replicons containing NS5A genes from genotype 3a HCV infected humans; assay: Transient replicon (shuttle vector) assay with NS5A genes from patient isolates, genotype 3a
[9] = system: HCV replicon containing NS5A from genotype 6a; assay: Stable 1b-Con1 replicon cell line containing a portion of NS5A from genotype 6a (luciferase); details: Hepatitis C virus
Method: as §1, §2

[10] = system: HCV replicon containing NS5A from genotype 2b; assay: Stable 1b-Con1 replicon cell line containing a portion of NS5A from genotype 2b (luciferase); details: Hepatitis C virus
Method: as §1, §2

[11] = system: HCV replicon containing NS5A from genotype 5a; assay: Stable 1b-Con1 replicon cell line containing a portion of NS5A from genotype 5a (luciferase); details: Hepatitis C virus
Method: as §1, §2

[12] = system: HCV replicons containing NS5A genes from genotype 1b HCV infected humans; assay: Transient replicon (shuttle vector) assay with NS5A genes from patient isolates, genotype 1b
[13] = system: HCV genotype 1a-H77 replicon; assay: HCV stable subgenomic replicon cell culture assay (luciferase reporter), genotype 1a-H77; details: Hepatitis C virus
[14] = read-out: Mean EC50, pM, ± Std. Dev.

COC(=O)N[C@H](C(=O)N1CCC[C@H]1C(=O)Nc1ccc([C@@H]2CC[C@@H](c3ccc(NC(=O)[C@@H]4CCCN4C(=O)[C@@H](NC(=O)OC)C(C)C)cc3)N2c2ccc(C(C)(C)C)cc2)cc1)C(C)C [Compound 1, dimethyl (2S,2′S)-1,1′-((2S,2′S)-2,2′-(4,4′-((2S,5 S)-1-(4-tert-butylphenyl)pyrrolidine-2,5-diyl)bis(4,1-phenylene))bis(azanediyl)bis(oxomethylene)bis(pyrrolidine-2,1-diyl))bis(3-methyl-1-oxobutane-2,1-diyl)dicarbamate]
EC50 ([1]; Hepatitis C virus, isolate 1110880, variant L28): 42 pM
EC50 ([1]; Hepatitis C virus, isolate 1110880-L28F, variant F28 (L28F mutation introduced)): 68 pM
EC50 ([1]; isolate 1110880, variant L28): 42.3 pM
EC50 ([1]; isolate 1110880-L28F, variant F28 (L28F mutation introduced)): 68 pM
EC50 ([2]; Genotype 1b-Con1 replicon, 0% human plasma (5% fetal bovine serum), read-out: Mean EC50, pM, ± Std. Dev.): 5 ± 1.9 pM
EC50 ([2]; against HCV genotype 1b (summary statement), read-out: EC50 value): < 20 pM
EC50 ([3]; read-out: EC50 value): < 20 pM
EC50 [3, 14]: 1.71 ± 0.88 pM
EC50 ([4]; Genotype 2a, isolate 34021): 5.07 pM
EC50 ([4]; Genotype 2a, isolate 84836): 11.3 pM
EC50 ([4]; Genotype 2a, isolate 88935): 2.56 pM
EC50 ([4]; Genotype 2a, isolate 88939): 2.03 pM
EC50 ([4]; Genotype 2a, isolate 91106): 3.39 pM
EC50 ([4]; Genotype 2a, isolate 10124423): 3.46 pM
EC50 ([4]; Genotype 2a, isolate U01): 4.79 pM
EC50 ([4]; read-out: EC50, pM, Mean ± Std. Dev., mean of the genotype 2a isolates (methionine at NS5A position 31)): 3.8 pM
EC50 ([5]; read-out: EC50 value): < 20 pM
EC50 [5, 14]: 12.4 ± 2.7 pM
EC50 ([6]; Hepatitis C virus, Genotype 2b, isolate 48477): 1.11 pM
EC50 ([6]; Hepatitis C virus, Genotype 2b, isolate 51629, variant F28): 44.7 pM
EC50 ([6]; Hepatitis C virus, Genotype 2b, isolate 9992612): 5.15 pM
loss in activity ([6]; genotype 2b sample containing L28F variant): 75 fold
EC50 ([6]; read-out: EC50, pM, Mean ± Std. Dev., mean of 13/14 genotype 2b samples (without the L28F sample)): 1.08 ± 1.23 pM
EC50 ([7]; read-out: EC50 value): < 20 pM
EC50 [7, 14]: 19.3 ± 5.8 pM
EC50 ([8]; Genotype 3a, isolate 55500, variant K30 (A30K)): 55.2 pM
EC50 ([8]; Hepatitis C virus, Genotype 3a, isolate 7153-55): 2.32 pM
EC50 ([8]; Hepatitis C virus, Genotype 3a, isolate 9110-47): 3.87 pM
EC50 ([8]; Hepatitis C virus, Genotype 3a, isolate 48557): 11.4 pM
EC50 ([8]; Hepatitis C virus, Genotype 3a, isolate 55500, variant K30 (A30K)): 55 pM
EC50 ([8]; Hepatitis C virus, Genotype 3a, isolate 55510): 3.03 pM
EC50 ([8]; Hepatitis C virus, Genotype 3a, isolate 55534): 3.28 pM
EC50 ([8]; Hepatitis C virus, Genotype 3a, isolate 57223): 4.14 pM
EC50 ([8]; Hepatitis C virus, Genotype 3a, isolate 57314): 2.02 pM
EC50 ([8]; Hepatitis C virus, Genotype 3a, isolate 85501): 3.05 pM
EC50 ([8]; Hepatitis C virus, Genotype 3a, isolate 89241, variant V28): 2.71 pM
EC50 ([8]; Hepatitis C virus, Genotype 3a, isolate 95079): 15.2 pM
EC50 ([8]; Hepatitis C virus, Genotype 3a, isolate 9810069): 2.52 pM
EC50 ([8]; Hepatitis C virus, read-out: EC50, pM, Mean ± Std. Dev., mean of 12 of the 13 genotype 3a samples (without the A30K sample)): 4.5 pM
EC50 ([8]; read-out: EC50, pM, Mean ± Std. Dev., mean of 12 of the 13 genotype 3a samples (without the A30K sample)): 4.54 ± 4.26 pM
EC50 ([9]; read-out: EC50 value): < 500 pM
EC50 [9, 14]: 415 ± 97 pM
EC50 ([10]; read-out: EC50 value): < 20 pM
EC50 [10, 14]: 4.3 ± 1.2 pM
EC50 ([11]; read-out: EC50 value): < 20 pM
EC50 [11, 14]: 4.3 ± 0.9 pM
EC50 ([12]; Hepatitis C virus, Genotype 1b, isolate 1393): 1.15 pM
EC50 ([12]; Hepatitis C virus, Genotype 1b, isolate 4377): 1.53 pM
EC50 ([12]; Hepatitis C virus, Genotype 1b, isolate 4386): 1.21 pM
EC50 ([12]; Hepatitis C virus, Genotype 1b, isolate 4410): 1.2 pM
EC50 ([12]; Hepatitis C virus, Genotype 1b, isolate 9432): 1.12 pM
EC50 ([12]; Hepatitis C virus, read-out: EC50, pM, Mean ± Std. Dev, mean of the 11 genotype 1b clinical isolates): 1 pM
EC50 ([12]; read-out: EC50, pM, Mean ± Std. Dev, mean of the 11 genotype 1b clinical isolates): 1.03 ± 0.23 pM
EC50 ([13]; Genotype 1a-H77 replicon, 0% human plasma (5% fetal bovine serum), read-out: Mean EC50, pM, ± Std. Dev.): 14.1 ± 6.8 pM
EC50 ([13]; against HCV genotype 1a (summary statement), read-out: EC50 value): < 20 pM
EC50 ([13]; genotype 1a and 1b replicons together, in the presence of 5% FBS, read-out: mean EC50 values): 5 to 14 pM
